Assays:
NR2F6 = target: T1, NR2F6 (Homo sapiens, UniProt P10588); assay: NR2F6 agonist screening, Firefly signal cmpd/DMSO; assay type: cell-based; parameters: Firefly NR2F6 full length, cmpd/DMSO (mean) / Firefly F4, cmpd/DMSO (mean): unit of the concentration uncertain; conditions: for Firefly/Renilla (NR2F6 stable, clone F4): ratio Firefly/Renilla; for Firefly, NR2F6 stable (clone F4)/pGL4: ratio of Firefly in NR2F6 stable clone F4 to pGL4
T1 construct: expressed in transfected cells; also transient transfection
T1 sequence (P10588 1-404): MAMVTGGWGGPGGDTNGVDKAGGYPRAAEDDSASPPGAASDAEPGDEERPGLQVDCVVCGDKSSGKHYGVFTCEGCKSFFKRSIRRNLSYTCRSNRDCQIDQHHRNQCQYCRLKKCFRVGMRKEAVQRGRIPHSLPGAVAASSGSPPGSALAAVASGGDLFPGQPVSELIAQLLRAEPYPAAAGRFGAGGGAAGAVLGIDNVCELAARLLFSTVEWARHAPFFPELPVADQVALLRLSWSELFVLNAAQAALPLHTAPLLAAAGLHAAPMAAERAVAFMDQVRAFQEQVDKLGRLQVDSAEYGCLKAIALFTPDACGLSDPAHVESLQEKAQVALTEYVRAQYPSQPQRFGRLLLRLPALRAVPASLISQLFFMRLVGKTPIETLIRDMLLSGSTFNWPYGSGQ

Renilla = Renilla signal in NR2F6 agonist screening, cmpd/DMSO; assay type: cell-based
[1] = C11 analogs follow set (Tables 2-10)
[2] = Concentration 2 (unit uncertain)
[3] = Concentration 10 (unit uncertain)
[4] = Concentration 40 (unit uncertain)

Cc1ccc(NC(=O)c2n[nH]c3c2CC(C)CC3)cc1C (stereo not drawn) [Compound Z96]
NR2F6_full (stable, clone F4), cmpd/DMSO Firefly (NR2F6; 2 uM): 2.9
NR2F6_full (transient), cmpd/DMSO Firefly (NR2F6; 2 uM): 2.4
NR2F6_full (stable, clone F4), cmpd/DMSO Firefly (NR2F6; 10 uM): 2.6
NR2F6_full (transient), cmpd/DMSO Firefly (NR2F6; 10 uM): 2.3
NR2F6_full (stable, clone F4), cmpd/DMSO Firefly (NR2F6; 40 uM): 2.6
NR2F6_full (transient), cmpd/DMSO Firefly (NR2F6; 40 uM): 2.4
NR2F6_full (stable, clone F4), cmpd/DMSO Renilla (Renilla; 2 uM): 1.3
NR2F6_full (transient), cmpd/DMSO Renilla (Renilla; 2 uM): 1.0
NR2F6_full (stable, clone F4), cmpd/DMSO Renilla (Renilla; 10 uM): 1.2
NR2F6_full (transient), cmpd/DMSO Renilla (Renilla; 10 uM): 1.0
NR2F6_full (stable, clone F4), cmpd/DMSO Renilla (Renilla; 40 uM): 1.2
NR2F6_full (transient), cmpd/DMSO Renilla (Renilla; 40 uM): 0.9

COc1ccc(-c2noc(Cn3ncccc3=O)n2)cc1 [Compound Z97]
Firefly, cmpd/DMSO (mean) (NR2F6): 2.1
NR2F6_full (stable, clone F4), cmpd/DMSO Firefly (NR2F6; 2 uM): 2.3
NR2F6_full (transient), cmpd/DMSO Firefly (NR2F6; 2 uM): 2.4
NR2F6_full (stable, clone F4), cmpd/DMSO Firefly (NR2F6; 10 uM): 2.2
NR2F6_full (transient), cmpd/DMSO Firefly (NR2F6; 10 uM): 2.8
NR2F6_full (stable, clone F4), cmpd/DMSO Firefly (NR2F6; 40 uM): 1.5
NR2F6_full (transient), cmpd/DMSO Firefly (NR2F6; 40 uM): 2.3
NR2F6_full (stable, clone F4), cmpd/DMSO Renilla (Renilla; 2 uM): 1.1
NR2F6_full (transient), cmpd/DMSO Renilla (Renilla; 2 uM): 1.0
NR2F6_full (stable, clone F4), cmpd/DMSO Renilla (Renilla; 10 uM): 1.1
NR2F6_full (transient), cmpd/DMSO Renilla (Renilla; 10 uM): 1.1
NR2F6_full (stable, clone F4), cmpd/DMSO Renilla (Renilla; 40 uM): 1.2
NR2F6_full (transient), cmpd/DMSO Renilla (Renilla; 40 uM): 1.1

O=c1oc2ccc(F)cc2cc1S(=O)(=O)c1ccc(Br)cc1 [Compound C215]
Firefly, cmpd/DMSO repeat 1 (NR2F6; [1]): 11.6
Firefly, cmpd/DMSO repeat 2 (NR2F6; [1]): 13.8

COc1cccc2cc(S(=O)(=O)c3ccc(F)c(C)c3)c(=O)oc12 [Compound C257]
Firefly, cmpd/DMSO repeat 1 (NR2F6; Table 9): 2.1
Firefly, cmpd/DMSO repeat 2 (NR2F6; Table 9): 1.6

COc1ccc(S(=O)(=O)c2cc3cc(Cl)ccc3oc2=O)cc1 [Compound C203]
Firefly, cmpd/DMSO repeat 1 (NR2F6; [1]): 9.5
Firefly, cmpd/DMSO repeat 2 (NR2F6; [1]): 15.5

Cc1ccc(S(=O)(=O)NCc2cn3ccccc3n2)c(C)c1 [Compound E24]
Firefly F4, cmpd/DMSO (mean) (NR2F6; [2]): 1.0
Firefly NR2F6 full length, cmpd/DMSO (mean) (NR2F6; [2]): 1.0
Firefly F4, cmpd/DMSO (mean) (NR2F6; [3]): 0.9
Firefly NR2F6 full length, cmpd/DMSO (mean) (NR2F6; [3]): 1.1
Firefly F4, cmpd/DMSO (mean) (NR2F6; [4]): 0.7
Firefly NR2F6 full length, cmpd/DMSO (mean) (NR2F6; [4]): 1.1

O=C(NCCc1ccccc1)c1ccc2oc(=O)c(S(=O)(=O)c3ccccc3)cc2c1 [Compound C111]
Firefly, cmpd/DMSO repeat 1 (NR2F6; [1]): 29.8
Firefly, cmpd/DMSO repeat 2 (NR2F6; [1]): 35.9
Firefly/Renilla (NR2F6 stable, clone F4) (NR2F6; Table 13): 1.1
Firefly, NR2F6 stable (clone F4)/pGL4 (NR2F6; Table 13): 8.7
Firefly, cmpd/DMSO repeat 1 (NR2F6; Table 13): 29.8
Firefly, cmpd/DMSO repeat 2 (NR2F6; Table 13): 35.9

O=C(NCCc1ccccc1)c1ccc2oc(=O)c(S(=O)(=O)c3ccc(F)cc3)cc2c1 [Compound C113]
Firefly, cmpd/DMSO repeat 1 (NR2F6; [1]): 5.8
Firefly, cmpd/DMSO repeat 2 (NR2F6; [1]): 7.0

O=c1oc2ccc(F)cc2cc1S(=O)(=O)c1ccccc1 [Compound C212]
Firefly, cmpd/DMSO repeat 1 (NR2F6; [1]): 1.7
Firefly, cmpd/DMSO repeat 2 (NR2F6; [1]): 1.9

O=C(Nc1cccc(Cl)c1)c1ccc2oc(=O)c(S(=O)(=O)c3ccc(F)cc3)cc2c1 [Compound C128]
Firefly, cmpd/DMSO repeat 1 (NR2F6; [1]): 1.7
Firefly, cmpd/DMSO repeat 2 (NR2F6; [1]): 5.2

Cc1ccc(NC(=O)c2ccc3oc(=O)c(S(=O)(=O)c4ccccc4)cc3c2)cc1 [Compound C161]
Firefly, cmpd/DMSO repeat 1 (NR2F6; [1]): 35.4
Firefly, cmpd/DMSO repeat 2 (NR2F6; [1]): 39.0
Firefly/Renilla (NR2F6 stable, clone F4) (NR2F6; Table 13): 1.3
Firefly, NR2F6 stable (clone F4)/pGL4 (NR2F6; Table 13): 8.1
Firefly, cmpd/DMSO repeat 1 (NR2F6; Table 13): 35.4
Firefly, cmpd/DMSO repeat 2 (NR2F6; Table 13): 39.0

COC(=O)c1ccc2oc(=O)c(S(=O)(=O)c3ccc(C)cc3)cc2c1 [Compound C13]
Firefly, cmpd/DMSO repeat 1 (NR2F6; [1]): 14.0
Firefly, cmpd/DMSO repeat 2 (NR2F6; [1]): 12.9
Firefly/Renilla (NR2F6 stable, clone F4) (NR2F6; Table 12): 1.8
Firefly, NR2F6 stable (clone F4)/pGL4 (NR2F6; Table 12): 4.2
Firefly, cmpd/DMSO repeat 1 (NR2F6; Table 12): 14.0
Firefly, cmpd/DMSO repeat 2 (NR2F6; Table 12): 12.9

CCOc1cccc2cc(S(=O)(=O)c3ccc(C)cc3)c(=O)oc12 [Compound C236]
Firefly, cmpd/DMSO repeat 1 (NR2F6; Table 9): 4.4
Firefly, cmpd/DMSO repeat 2 (NR2F6; Table 9): 4.9

O=c1oc2ccc(Cl)cc2cc1S(=O)(=O)c1ccccc1 [Compound C201]
Firefly, cmpd/DMSO repeat 1 (NR2F6; [1]): 6.1
Firefly, cmpd/DMSO repeat 2 (NR2F6; [1]): 5.3

O=c1oc2c(Br)cc(Br)cc2cc1S(=O)(=O)c1ccc(Cl)cc1 [Compound C286]
Firefly, cmpd/DMSO repeat 1 (NR2F6; Table 11): 2.3
Firefly, cmpd/DMSO repeat 2 (NR2F6; Table 11): 2.4

O=c1oc2ccc(Cl)cc2cc1S(=O)(=O)c1cc(F)cc(F)c1 [Compound C194]
Firefly, cmpd/DMSO repeat 1 (NR2F6; [1]): 10.6
Firefly, cmpd/DMSO repeat 2 (NR2F6; [1]): 6.3
Firefly/Renilla (NR2F6 stable, clone F4) (NR2F6; Table 13): 1.3
Firefly, NR2F6 stable (clone F4)/pGL4 (NR2F6; Table 13): 6.6
Firefly, cmpd/DMSO repeat 1 (NR2F6; Table 13): 10.6
Firefly, cmpd/DMSO repeat 2 (NR2F6; Table 13): 6.3

COc1ccc(CNC(=O)c2ccc3oc(=O)c(S(=O)(=O)c4ccc(F)cc4)cc3c2)cc1 [Compound C117]
Firefly, cmpd/DMSO repeat 1 (NR2F6; [1]): 17.3
Firefly, cmpd/DMSO repeat 2 (NR2F6; [1]): 24.1

O=C(NCc1ccccc1)c1ccc2oc(=O)c(S(=O)(=O)c3ccccc3)cc2c1 [Compound C115]
Firefly, cmpd/DMSO repeat 1 (NR2F6; [1]): 6.8
Firefly, cmpd/DMSO repeat 2 (NR2F6; [1]): 21.9

O=c1oc2ccc(Br)cc2cc1S(=O)(=O)c1ccccc1F [Compound C219]
Firefly, cmpd/DMSO repeat 1 (NR2F6; [1]): 1.3
Firefly, cmpd/DMSO repeat 2 (NR2F6; [1]): 2.5

O=c1oc2ccc(Cl)cc2cc1S(=O)(=O)c1ccc(Cl)cc1 [Compound C147]
Firefly, cmpd/DMSO repeat 1 (NR2F6; [1]): 2.6
Firefly, cmpd/DMSO repeat 2 (NR2F6; [1]): 2.9

COc1cccc(-c2noc(Cn3ncc(C)c(C)c3=O)n2)c1 [Compound Z139]
Firefly, cmpd/DMSO (mean) (NR2F6): 1.5

COc1ccc2cc(S(=O)(=O)c3ccc(Cl)cc3)c(=O)oc2c1 [Compound C271]
Firefly, cmpd/DMSO repeat 1 (NR2F6; [1]): 2.2
Firefly, cmpd/DMSO repeat 2 (NR2F6; [1]): 1.2

Cc1cc(C)cc(S(=O)(=O)c2cc3cc(F)ccc3oc2=O)c1 [Compound C190]
Firefly, cmpd/DMSO repeat 1 (NR2F6; [1]): 2.1
Firefly, cmpd/DMSO repeat 2 (NR2F6; [1]): 2.5

Cc1cc(C)cc(NC(=O)c2ccc3oc(=O)c(S(=O)(=O)c4ccccc4)cc3c2)c1 [Compound C174]
Firefly, cmpd/DMSO repeat 1 (NR2F6; [1]): 5.8
Firefly, cmpd/DMSO repeat 2 (NR2F6; [1]): 14.3

CCOc1cccc2cc(S(=O)(=O)c3ccc(F)cc3)c(=O)oc12 [Compound C237]
Firefly, cmpd/DMSO repeat 1 (NR2F6; Table 9): 3.5
Firefly, cmpd/DMSO repeat 2 (NR2F6; Table 9): 2.9

O=c1oc2ccccc2cc1S(=O)(=O)c1ccc(Cl)c(Cl)c1 [Compound C106]
Firefly, cmpd/DMSO repeat 1 (NR2F6; [1]): 1.4
Firefly, cmpd/DMSO repeat 2 (NR2F6; [1]): 1.3

O=C(Nc1ccccc1C(F)(F)F)c1ccc2oc(=O)c(S(=O)(=O)c3ccc(F)cc3)cc2c1 [Compound C120]
Firefly, cmpd/DMSO repeat 1 (NR2F6; [1]): 4.5
Firefly, cmpd/DMSO repeat 2 (NR2F6; [1]): 6.3

CC(C)(C)c1ccc(S(=O)(=O)c2cc3cc(Cl)ccc3oc2=O)cc1 [Compound C205]
Firefly, cmpd/DMSO repeat 1 (NR2F6; [1]): 6.9
Firefly, cmpd/DMSO repeat 2 (NR2F6; [1]): 6.0

COc1ccc2cc(S(=O)(=O)c3ccc(F)c(C)c3)c(=O)oc2c1 [Compound C282]
Firefly, cmpd/DMSO repeat 1 (NR2F6; [1]): 0.7
Firefly, cmpd/DMSO repeat 2 (NR2F6; [1]): 1.1

COc1ccc2cc(S(=O)(=O)c3ccc(C)c(Cl)c3)c(=O)oc2c1 [Compound C261]
Firefly, cmpd/DMSO repeat 1 (NR2F6; [1]): 2.0
Firefly, cmpd/DMSO repeat 2 (NR2F6; [1]): 1.4

Cc1ccc(S(=O)(=O)N(Cc2nc3nc(C)c(S)c(C)n3n2)c2ccccc2)cc1 [Compound E57]
Firefly F4, cmpd/DMSO (mean) (NR2F6; [2]): 1.0
Firefly NR2F6 full length, cmpd/DMSO (mean) (NR2F6; [2]): 1.3
Firefly F4, cmpd/DMSO (mean) (NR2F6; [3]): 1.3
Firefly NR2F6 full length, cmpd/DMSO (mean) (NR2F6; [3]): 1.2
Firefly F4, cmpd/DMSO (mean) (NR2F6; [4]): 1.3
Firefly NR2F6 full length, cmpd/DMSO (mean) (NR2F6; [4]): 0.9

COC(=O)c1ccc2oc(=O)c(S(=O)(=O)c3ccc(F)cc3)cc2c1 [Compound C14]
Firefly, cmpd/DMSO repeat 1 (NR2F6; [1]): 22.3
Firefly, cmpd/DMSO repeat 2 (NR2F6; [1]): 20.0
Firefly/Renilla (NR2F6 stable, clone F4) (NR2F6; Table 13): 1.5
Firefly, NR2F6 stable (clone F4)/pGL4 (NR2F6; Table 13): 7.6
Firefly, cmpd/DMSO repeat 1 (NR2F6; Table 13): 22.3
Firefly, cmpd/DMSO repeat 2 (NR2F6; Table 13): 20.0

COc1ccccc1NC(=O)c1ccc2oc(=O)c(S(=O)(=O)c3ccc(Cl)cc3)cc2c1 [Compound C125]
Firefly, cmpd/DMSO repeat 1 (NR2F6; [1]): 28.0
Firefly, cmpd/DMSO repeat 2 (NR2F6; [1]): 24.5

Cc1ccc(S(=O)(=O)c2cc3cc(Br)ccc3oc2=O)cc1Cl [Compound C189]
Firefly, cmpd/DMSO repeat 1 (NR2F6; [1]): 2.8
Firefly, cmpd/DMSO repeat 2 (NR2F6; [1]): 2.2

O=c1oc2cc(O)ccc2cc1S(=O)(=O)c1ccc(F)c(Cl)c1 [Compound C276]
Firefly, cmpd/DMSO repeat 1 (NR2F6; [1]): 1.2
Firefly, cmpd/DMSO repeat 2 (NR2F6; [1]): 1.3

COc1ccc(S(=O)(=O)c2cc3cccc(OC)c3oc2=O)cc1OC [Compound C247]
Firefly, cmpd/DMSO repeat 1 (NR2F6; Table 9): 2.2
Firefly, cmpd/DMSO repeat 2 (NR2F6; Table 9): 1.6
